The experiment deals with edema in the hind paws (carrageenan). The experiment in a line: carrageenan-induced hind paw edema, oral administration. The format is in vivo, male Wistar rats. To be noted: Rattus norvegicus; for inhibition in vivo at 10 mg/kg: 10 mg/kg orally; for inhibition in vivo at 5 mg/kg: 5 mg/kg orally; for inhibition in vivo at 1 mg/kg: 1 mg/kg orally. As for the experimental part: That is, male Wistar rats weighing about 100 g, one group consisting of 5 to 7 animals, were given orally the compounds according to the present invention and then edema was induced in the hind paws by subcutaneous injections of 0.1 ml of 1% carrageenan 1 hour after the administration of the test compounds, and the volumes of the hind paws were measured by a volume differential meter.
For orientation: In the carrageenan paw model, swelling and tenderness develop within hours.

Setting [1] is: 1 hr, read-out: Inhibition (%) 1 hr.
Setting [2] is: 2 hr, read-out: Inhibition (%) 2 hr.
Setting [3] is: 3 hr, read-out: Inhibition (%) 3 hr.
Setting [4] is: 4 hr, read-out: Inhibition (%) 4 hr.
Where [5] appears, read: 5 hr, read-out: Inhibition (%) 5 hr.
[6] abbreviates: 6 hr, read-out: Inhibition (%) 6 hr.

Like-named read-outs stand apart in the source and are kept apart here.

As for `CC(C(=O)O)c1ccc2c(c1)C(=O)Cc1cccnc1S2` (centres unmarked) [Compound 20, 2-(5,6-dihydro-6-oxobenzo[b]pyrido[3,2-f]thiepin-8-yl)-propionic acid], the inhibition in vivo at 10 mg/kg by setting is: under setting [1], 45%; under setting [2], 54.3%; under setting [3], 47.5%; under setting [4], 33.8%; under setting [5], 28.9%; under setting [6], 24.3%.

With `CC(C(=O)O)c1ccc2c(c1)CCc1cccnc1S2` (centres unmarked) [Compound 21, 2-(5,6-dihydrobenzo[b]pyrido[3,2-f]thiepin-8-yl)-propionic acid], the inhibition in vivo at 10 mg/kg under setting [1] was found to be 69.5%; the inhibition in vivo at 10 mg/kg under setting [2] amounted to 75.6%; the inhibition in vivo at 10 mg/kg under setting [3] was found to be 69%; the inhibition in vivo at 10 mg/kg under setting [4] stood at 67%; the inhibition in vivo at 10 mg/kg under setting [5] came to 70.3%; the inhibition in vivo at 10 mg/kg under setting [6] was 64.6%.

As for `CCOC(=O)C(C)c1ccc2c(c1)CCc1cccnc1S2` (centres unmarked) [Compound 22, Ethyl 2-(5,6-dihydrobenzo[b]pyrido[3,2-f]thiepin-8-yl)-propionate], the inhibition in vivo at 10 mg/kg by setting is: under setting [1], 29.6%; under setting [2], 51.7%; under setting [3], 59.1%; under setting [4], 57%; under setting [5], 45.9%; under setting [6], 42.8%.

Consider `CC(C(N)=O)c1ccc2c(c1)CCc1cccnc1S2` (centres unmarked) [Compound 23, 2-(5,6-dihydrobenzo[b]pyrido[3,2-f]thiepin-8-yl)-propionamide], for which the inhibition in vivo at 5 mg/kg came out at 22.6% under setting [1]; 53.8% under setting [2]; 60.9% under setting [3]; 64.1% under setting [4]; 51.8% under setting [5]; 37.5% under setting [6].

With `CC(C(=O)O)c1ccc2c(c1)Sc1ncccc1CC2` (centres unmarked) [Compound 24, 2-(5,6-dihydrobenzo[b]pyrido[3,2-f]thiepin-9yl)-propionic acid], the inhibition in vivo at 10 mg/kg reads like this: under setting [1], 19.6%; under setting [2], 52.1%; under setting [3], 49.9%; under setting [4], 38.3%; under setting [5], 28.2%; under setting [6], 27.2%.

On to `CCOC(=O)C(C)c1ccc2c(c1)Sc1ncccc1CC2` (centres unmarked) [Compound 25, Ethyl 2-(5,6-dihydrobenzo[b]pyrido[3,2-f]thiepin-9-yl)-propionate], for which the inhibition in vivo at 10 mg/kg by setting is: under setting [1], 42.8%; under setting [2], 57.7%; under setting [3], 61%; under setting [4], 52.7%; under setting [5], 33.4%; under setting [6], 29.2%.

On to `CC(C(=O)O)c1ccc2c(c1)C(=O)Cc1cccnc1O2` (centres unmarked) [Compound 26, 2-(5,6-dihydro-6-oxobenzo[b]pyrido[3,2-f]oxepin-8-yl)-propionic acid], for which the inhibition in vivo at 5 mg/kg is, setting by setting: under setting [1], 55.7%; under setting [2], 52.6%; under setting [3], 40%; under setting [4], 32.2%; under setting [5], 29.7%; under setting [6], 24%.

Regarding `CC(C(=O)O)c1ccc2c(c1)CCc1cccnc1O2` (centres unmarked) [Compound 27, 2-(5,6-dihydrobenzo[b]pyrido[3,2-f]oxepin-8yl)-propionic acid], the inhibition in vivo at 5 mg/kg came out at 68% under setting [1]; 83.5% under setting [2]; 79% under setting [3]; 81% under setting [4]; 70.6% under setting [5]; 61.5% under setting [6].

Regarding `CCOC(=O)C(C)c1ccc2c(c1)CCc1cccnc1O2` (centres unmarked) [Compound 28], the inhibition in vivo at 5 mg/kg is 11.7% under setting [1]; 35.1% under setting [2]; 50.9% under setting [3]; 55.4% under setting [4]; 47.1% under setting [5]; 37.7% under setting [6].

Turning to `CC(C(N)=O)c1ccc2c(c1)CCc1cccnc1O2` (centres unmarked) [Compound 29, 2-(5,6-dihydrobenzo[b]pyrido[3,2-f]oxepin-8-yl)-propionamide], the inhibition in vivo at 5 mg/kg runs as follows: under setting [1], 18.1%; under setting [2], 38.3%; under setting [3], 53.5%; under setting [4], 53.8%; under setting [5], 46.2%; under setting [6], 42.9%.

As to `CC(C(N)=O)c1ccc2c(c1)CCc1ccccc1S2` (centres unmarked) [Compound 30, 2-(10,11-dihydrodibenzo[b,f]thiepin-2-yl)-propionamide], the inhibition in vivo at 5 mg/kg reads like this: under setting [1], 21.4%; under setting [2], 56.4%; under setting [3], 59%; under setting [4], 52.8%; under setting [5], 38.6%; under setting [6], 27.3%.

Take `O=C(O)c1ccccc1Nc1cccc(C(F)(F)F)c1` [Flufenamic acid, reference compound]: the inhibition in vivo at 5 mg/kg by setting is: under setting [1], 6.8%; under setting [2], 25.9%; under setting [3], 26.2%; under setting [4], 25.3%; under setting [5], 16%; under setting [6], 10.6%. The inhibition in vivo at 10 mg/kg is -2.9% under setting [1]; 23.9% under setting [2]; 26.8% under setting [3]; 29.5% under setting [4]; 23.8% under setting [5]; 15.4% under setting [6].

`COc1ccc2c(c1)c(CC(=O)O)c(C)n2C(=O)c1ccc(Cl)cc1` [Indomethacin, reference compound]: the inhibition in vivo at 1 mg/kg under setting [1] stood at 21.6%; the inhibition in vivo at 1 mg/kg under setting [2] worked out at 39.6%; the inhibition in vivo at 1 mg/kg under setting [3] stood at 29.9%; the inhibition in vivo at 1 mg/kg under setting [4] turned out to be 36.4%; the inhibition in vivo at 1 mg/kg under setting [5] was found to be 28.9%; the inhibition in vivo at 1 mg/kg under setting [6] amounted to 28.7%. In addition, the inhibition in vivo at 5 mg/kg is 38.3% under setting [1]; 51.7% under setting [2]; 59.2% under setting [3]; 58.4% under setting [4]; 48.7% under setting [5]; 41% under setting [6]. For the same compound, the inhibition in vivo at 10 mg/kg was determined as 64.4% under setting [1]; 59.8% under setting [2]; 52.1% under setting [3]; 63.8% under setting [4]; 54.4% under setting [5]; 50.3% under setting [6].

In the case of `CCCCC1C(=O)N(c2ccccc2)N(c2ccccc2)C1=O` [Phenyl butazone, reference compound], the inhibition in vivo at 5 mg/kg under setting [2] stood at 22.7%; the inhibition in vivo at 5 mg/kg under setting [3] was 21.1%; the inhibition in vivo at 5 mg/kg under setting [4] stood at 22.2%; the inhibition in vivo at 5 mg/kg under setting [5] worked out at 13.1%; the inhibition in vivo at 5 mg/kg under setting [6] worked out at 13.6%. Moreover, the inhibition in vivo at 10 mg/kg came to 12.4% under setting [1]; 23.7% under setting [2]; 27.4% under setting [3]; 20% under setting [4]; 14.4% under setting [5]; 8.6% under setting [6].

These data come from patent publication US4205170A, “Propionic acid derivatives” (priority 1976, dated 1980).
